Test results from a melting point compilation (Tetko et al.; mined from patent text by program, amines drawn as free bases though some values may be those of a salt).

SMILES | melting point [°C]
COc1ccc2c(c1)CC(N(CC(=O)O)C(=O)C(C)CSC(C)=O)CC2 (stereo not given) | 147 to 150
Nc1nc(Nc2ccc(N3CCOCC3)cc2)sc1C(=O)c1c(Cl)cccc1Cl | 245 to 247
O=C(c1ccccc1)n1c2cc(O)c(O)cc2c2cc(O)c(O)cc21 | 287 to 292
CNC(=O)[C@@H](C[C@H](O)[C@H](CC1CCCCC1)NC(=O)[C@H](Cc1cscn1)NC(=O)[C@@H](CC(=O)N1CCOCC1)Cc1ccccc1)C(C)(C)O | 150 to 152
COC(=O)c1ccc(C(=O)N[C@@H](CC(C)C)C(=O)N[C@@H](C(C)C)[C@@H](O)c2c(-c3ccccc3)c2=O)cc1 | 125 to 128
CCCCCC(CC(=O)Nc1cc(C(=O)NC(=O)C(C)(C)C)ccc1C(C)(C)C)c1ccc(OC)cc1OC (stereo not given) | 170 to 172
FC(F)(F)c1cc(Cl)c(Oc2ccc3ccc(S)cc3c2)c(Cl)c1 | 98
CCC(OC(C)=O)c1nc2c(C(F)(F)F)cccc2c(O)c1C(=O)Nc1nccs1 (stereo not given) | 245
CCS(=O)(=O)CCC(=O)NNC(=O)N1Cc2ccccc2Oc2ccc(NS(C)(=O)=O)cc21 | 211 to 212
Cc1nc(-c2cn(Cc3ccccc3)nn2)sc1C(=O)NCc1ccccc1 | 108 to 109
Cc1ccnc(C(=O)c2[nH]c3ccc(Cl)cc3c2CC(=O)NCCN)c1 | 166
COc1cc(OC)c2c(=O)c(OCCOc3ccc(C(C)=C4SC(=O)NC4=O)cc3)c(-c3ccc(OC)c(OC)c3)oc2c1 | 205 to 206
CS(=O)(=O)c1ccc(-c2nc(C(F)(F)F)nc(OS(=O)(=O)c3cccc4ccccc34)c2-c2ccccc2)cc1 | 204 to 206
Cc1c(C2=CCC(c3cccc(F)c3)(N(C)C)CC2)[nH]c2ccccc12 (stereo not given) | 157 to 163
CC12CCC3C(CCC4C(=[N+]=[N-])C(=O)CCC43C)C1CCC2O (stereo not given) | 171
O=C(c1c[nH]c2cc(F)ccc12)C(F)(F)F | 234 to 235
CC(C)(C)OC(=O)C(Nc1ccccc1)c1cccc(Br)c1 (racemic) | 90
CC(C)C(NC(=O)OCc1csc(N2CCCC2)n1)C(=O)NN(C(=O)OCc1cncs1)C(Cc1ccccc1)CC(O)CCc1ccccc1 (stereo not given) | 165 to 167
N#Cc1cnn(-c2ccc(Cl)c(Cl)c2Cl)c1N | 154 to 156
CCOC(=O)c1ccc(C2=NOC(c3cc(Cl)cc(Cl)c3)(C(F)(F)F)C2)cc1[N+](=O)[O-] (stereo not given) | 160 to 162
Cc1ccc(C[C@@H](NC(=O)c2cccc3c2C=CCCC3)[C@@H](O)c2ccc(F)cc2)cc1OC(F)(F)C(F)F (racemic) | 168 to 169

SMILES | melting point [°C]
CCCCCC1CCN([C@H]2CC[C@H](C(=O)OC)CC2)CC1 | 5
CC1(O)CCC2(C)C(CCC3C2CCC2(C)C(C(=O)COc4ccc([N+](=O)[O-])cc4)CCC32)C1 (stereo not given) | 169 to 172
NC(=O)COc1ccccc1C(=O)Nc1ccc(C(=O)N2CCCC(=O)c3ccccc32)cc1 | 226 to 228
O=C(NCCCc1ccncc1)N1CCOCC1 | 94 to 98
CCCCCCCCCCOC(=O)Oc1ccc(-c2ccc(C#N)cc2)cc1 | 59.3 to 60
O=C1CCN(Cc2ccccc2O)CC1C(c1ccc(F)cc1)c1ccc(F)cc1 (stereo not given) | 151 to 152
CCC(=O)Nc1ccc(-c2c[nH]c(=O)cn2)cc1 | 270 to 272
O=C(O)Cc1ccc(-c2ccc(F)cc2F)c(F)c1 | 145 to 147
Cc1cc2ccccc2c(-c2ccccc2I)n1 | 111 to 112
CC(C)(C)C(=O)Oc1ccc(C(=O)c2ccc(OC(=O)C(C)(C)C)cc2OC(=O)C(C)(C)C)c(OC(=O)C(C)(C)C)c1 | 154 to 156
COc1ccc(C(O)Cc2ccncc2)cc1OC1CCCC1 (stereo not given) | 97 to 101
Cc1cc(-c2cnn3c(C(F)(F)F)cc(-c4ccc(Br)cc4)nc23)cc(C)n1 | 258
COC(=O)c1cccc(C(=O)c2cn(CC(=O)N(C)CCc3ccccc3)c3ccc(OCc4ccccc4)cc23)c1 | 224 to 230
Cc1c(-c2ccccc2)oc2c(C(=O)NCCO)cccc2c1=O | 206 to 208
CCCNC(=O)c1nc(CCl)n(-c2ccc(Cl)cc2C(=O)c2ccccc2Cl)n1 | 110 to 113
CC(C)CC(NC(=O)C(Cc1c[nH]cn1)NC(=O)C(Cc1cccc2ccccc12)Cc1cccc2ccccc12)C(O)C(=O)OC(C)C (stereo not given) | 93 to 98
O=C(Nc1ccc(Cl)nc1)c1ccc(Cl)o1 | 143 to 144
Cc1ccccc1Oc1ccc2ccc(N)nc2n1 | 192
O=C1NC(=O)c2c1cc1ccc3c(c1c2-c1ccncc1)OCO3 | 299 to 302
O=C(O)c1cn(CC(F)(F)F)c2c(F)c(F)c(F)cc2c1=O | 205 to 207
CCSc1cc(C)nc(SCC)c1NC(=O)CCCCSc1nc2c(C)c(Cl)cc(C(C)C)c2o1 | 141 to 142

SMILES | melting point [°C]
c1cnc2[nH]cc(C3CN4CCC3CC4)c2c1 (stereo not given) | 185
Cc1cccc(C)c1NC(=O)/C=C1\SC(C)C(=O)N1C (stereo not given) | 220 to 222
CC(=O)N(CCC1CCCCN1CCC(C(N)=O)c1ccccc1Cl)C(C)C (stereo not given) | 140 to 141
CCn1cc(CC(=O)O)c(OCCCc2ccc(OCOC)cc2Oc2ccc(C(F)(F)F)cn2)n1 | 82 to 83
Cc1ccc(N2C(=O)c3ccccc3C2O)nn1 (stereo not given) | 232
NC(=O)c1cc2ccc(OCC(O)CCl)cc2o1 (stereo not given) | 109 to 110
Fc1nc(F)c(F)c(F)n1 | 104
CCOC(=O)Cc1cc(CC)c(C(=O)c2ccc(Cl)cc2)n1C | 73 to 75
COC(=O)c1ccc(C)c(C2=NC(C)(C(C)C)C(=O)N2)c1Cl (stereo not given) | 181 to 183
CCC(=Nc1ccc2nc(N3CCN(C)CC3)c(N3CCN(C)CC3)nc2c1)N(C)C | 173 to 175
Nc1ccc2c(c1)ncn2-c1cccc(-c2cccnc2)c1 | 172 to 175
Cn1cc2c(n1)Nc1ccc(F)cc1N=C2N1CCN(CC2CC2)CC1 | 188 to 189
CC1(C)OCCC2N1C(=O)C2(Sc1ccccc1)C1(O)CCSCC1 (stereo not given) | 191 to 192
CN(C)C(=O)Oc1ccc2c(NCCN3CCOCC3)noc2c1 | 150
Cc1ccc(Cl)c2sc(O)nc12 | 266
CNC(=S)NCCCSc1cncc(NC(N)=NCC(F)(F)F)n1 | 165 to 167
Cc1ccc(C(Cn2cncn2)c2ccccc2)cc1 (stereo not given) | 98 to 100
O=C1Nc2cccc(Cl)c2C1(O)c1cc2c(cc1O)OCO2 (stereo not given) | 250 to 253
CCc1nc2c(C)cc(C)nc2n1Cc1ccc(C(=C(SC)c2nnn[nH]2)c2ccccc2)cc1 | 116 to 119
CC(C)[C@H](NC(=O)OCc1ccccc1)C(=O)NC(Cc1ccccc1)C(O)C(Cc1ccccc1)NC(=O)[C@@H](NC(=O)OC(C)(C)C)C(C)C (stereo not given in full) | 184

Second part, the molecule after the results:

melting point [°C] | SMILES
281 to 282 | N#Cc1c(O)nc2ccc([N+](=O)[O-])cc2c1O
200 to 202 | O=C(O)Cc1cccc2c(-c3ccc(Cl)cc3)onc12
153 to 155 | Cc1cscc1-c1nc(-c2c(F)cccc2Cl)nn1C
81 to 82 | Cc1cc(C)cc(Sc2c(CC#N)nc(C)n2C)c1
67 to 69 | CCOC(=O)c1cnn(-c2ccc(Cl)cc2C(F)(F)F)c1Cl
200 to 202 | CC(C)n1nc(-c2cnc(N3CCOCC3)nc2-c2ccccc2)ccc1=O
44 to 47 | CC(Oc1ccc(Oc2ccc(C(F)(F)F)cn2)cc1)C(=O)OCCOCc1ccccc1 (stereo not given)
186 | COc1cccc(OC)c1-c1ccc(C[C@H](NC(=O)c2c(Cl)cc(-c3cscn3)cc2Cl)C(=O)O)cc1
92 to 93 | Cc1c(Cl)cc(O)cc1Cl
59 to 61 | COc1ccc(C(=O)Nc2cccc(C3(C#N)CCCC3)c2)cc1OC
211 to 213 | CCOCc1nc2c(N)nc3ccccc3c2n1CCN1C(C)=NOC12CCCC2
43 to 46 | CCOC(=O)c1cn(C)nc1C(F)F
95 to 96 | CC(=NOc1ccc(F)cc1)c1ccc(C(F)(F)F)cc1NS(=O)(=O)C(F)(F)F
137 to 139 | Cc1ccc(C(CC(=O)O)c2ccc(F)cc2)cc1 (stereo not given)
160 to 162 | CC(=O)C1CCC2C3CCC4CC(O)CCC4(C)C34OC4CC12C (stereo not given)
118 to 119 | O=CNC(=O)N1CC(Oc2cccc(C(F)(F)F)c2)C1
178 to 182 | Cc1cccc(C)c1NC(=S)CC(=O)Nc1ccc(-c2ncn(-c3ccc(OC(F)(F)F)cc3)n2)cc1

melting point [°C] | SMILES
61 to 64 | FC(F)(F)c1cc(N2CCN(Cc3ccc4ccccc4n3)CC2)ccc1Cl
106 | CCCCCS(=O)(=O)NC/C=C/c1ccc(OCCOC)cc1Oc1ncc(C(F)(F)F)cc1Cl
134 to 136 | O=S(=O)(NCC1CCCO1)c1ccc(Nc2nc(OCC3CCCCC3)c3nc[nH]c3n2)cc1 (stereo not given)
124 to 126 | CCCc1nn(C)c2c(=O)n(CCCOc3ccc(OC(C)(C)C(=O)O)cc3)c(CC)nc12
197 to 198 | CSc1nnnc2c1sc1nc(C)ccc12
74 to 75 | CCNC(=O)OC1=C(c2ccccc2)Oc2ccccc2-n2cccc21
140 | O=C(O)CCCCCN1C(=O)c2ccc([N+](=O)[O-])cc2C1=O
136 to 137 | CC(C)(CCCN)C(Cc1c[nH]c([N+](=O)[O-])n1)=NO
91 to 93 | CCCCNc1c2c(nc3c1cnn3CC)CCc1ccccc1C2=O
294 to 296 | CC1CNc2cc(C3=NNC(=O)CC3)ccc2O1 (stereo not given)
65 to 68 | O=C(N1CCC1)N1CC(Oc2cccc(C(F)(F)F)c2)C1
115 to 116 | CN(C(=O)OC(C)(C)C)c1cc(Oc2ccc(-n3ccnc3)cc2)ccc1N
196 to 198 | CC(=O)NC(=NNNc1ccccc1[N+](=O)[O-])c1ccccc1Cl
125 to 128 | O=C1CN(Cc2ccccc2)CC2c3ccccc3CCCN12 (stereo not given)
205 to 210 | COc1nc(C(F)(F)F)cc(=O)n1-c1cc(C(=O)O)c(Cl)cc1F
192 to 193 | CCN(C)C1CCCN(C(=O)c2ccc(NC(=O)c3ccccc3C)cc2)c2ccccc21 (stereo not given)
